Experimental data reported in patent US9732053B2, “1-[2-(2,4-dimethylphenylsulfanyl) phenyl]piperazine acetate in crystalline form” (LEK PHARMACEUTICALS D.D., priority 2013, dated 2017).
Structures can show the parent of a compound that is named as a salt.

How the values were obtained:
[1] = Slurry experiments in n-heptane for thermodynamic stability (Examples 12-13); assay type: physicochemical; details: room temperature
Protocol: Slurry experiments were performed to determine the order of the thermodynamic stability of the solid state forms at room temperature (see also Examples 12-13 of the present invention).
35 mg of vortioxetine acetate form Ill was suspended in 0.5 mL n-heptane and stirred with a magnetic stirrer at room temperature for 4 weeks.
25 mg of vortioxetine acetate form I was suspended in 0.5 mL n-heptane and stirred with a magnetic stirrer at room temperature for 24 h.

[2] = Gravimetric moisture sorption/desorption cycle; assay type: physicochemical; details: for Δm (0-80% RH), water absorption: 25° C.; for Structural changes during moisture sorption: sorption desorption cycle, XRPD
Protocol: Moisture sorption isotherms were recorded with an SPSx-1μ moisture sorption analyzer (ProUmid, Ulm). The measurement cycle was started at 3% relative humidity (RH). Then the RH was increased from 5% to 75%, decreased to 0% and increased to 80% in 5% steps. Finally the RH was decreased to 0% in 10% steps and equilibrated in a last step to 35%. The time per step was set to a minimum of 1 hour and a maximum of 3 hours. If an equilibrium condition with a constant mass of ±0.01% within 1 hour was reached before the maximum time for all examined samples, the sequential humidity step was applied before the maximum time of 3 hours. If no equilibrium was achieved, the consecutive humidity step was applied after the maximum time of 3 hours. The temperature was 25±0.1° C. The final water content was determined by coulometric Karl Fischer titration.
Coulometric Karl Fischer titration was performed with a Metrohm 831 KF Coulometer equipped with a double-platinum detecting electrode, a Metrohm 832 KF Thermoprep oven (130° C.) and Hydranal Coulomat AK as Karl Fischer reagent.

[3] = Stress tests at increased relative humidity with XRPD analysis (Examples 10-11); assay type: physicochemical
Protocol: X-ray powder diffractograms (XRPD) were obtained with an X'Pert PRO diffractometer (PANalytical, Almelo, The Netherlands) equipped with a theta/theta coupled goniometer in transmission geometry, programmable XYZ stage with well plate holder, Cu-Kα1,2 radiation source (wavelength 0.15419 nm) and a solid state PIX'cel detector. The diffractograms were recorded at a tube voltage of 45 kV, tube current of 40 mA applying a step size of 0.013° 2-theta with 40 s per step (255 channels) in the angular range of 2° to 40° 2-theta at ambient conditions. A typical precision of the 2-theta values is in the range of about ±0.2° 2-theta. Thus a diffraction peak that appears at 5.0° 2-theta can appear between 4.8 and 5.2° 2-theta on most X-ray diffractometers under standard conditions.
42 mg of vortioxetine acetate form Ill was stressed at 40° C./75% RH for 4 weeks.
34 mg of vortioxetine acetate form Ill were stressed at RT/97% RH for 4 weeks.

[4] = Water solubility determination of vortioxetine acetate form III (Example 9); assay type: physicochemical
Protocol: 100 μL water was added to 100.34 mg of vortioxetine acetate form Ill. The mixture was vigorously shaken for 2 min and placed at 25° C. for 15 min. The solid was not completely dissolved, therefore a further 100 μL of water was added and the dissolving procedure repeated. […] According to […]

[5] = room temperature; data from WO 2007/144005 A1 and WO 2010/121621 A1; cited from earlier work
[6] = listed as acetate form I, acetate
[7] = listed as acetate form III, acetate

Which “Structural changes after slurry (XRPD)” value ([1]; stirred 24 h, acetate) does the source give for `CC(=O)O.Cc1ccc(Sc2ccccc2N2CCNCC2)c(C)c1` [vortioxetine acetate form I, 1-[2-(2,4-dimethylphenylsulfanyl)phenyl]piperazine acetate] here?
Its value is “transformed to form III”.

What about the “Structural changes after slurry (XRPD)” value ([1]; stirred 24 h, listed as Form I of vortioxetine acetate) of the same compound?
The value was “undergoes a transition to form III”.

What about the “Δm (0-80% RH), water absorption” value [2, 6] of the same compound?
Its value is “+2%”.

And the “Δm (0-80% RH), water absorption” value ([2]; listed as form I, acetate)?
The value was 2%.

What about the “Structural changes during moisture sorption” value [2, 6] of the same compound?
The value was “partial decomposition to free base”.

And the “Structural changes during moisture sorption” value ([2]; listed as form I, acetate)?
The value was “partial decomposition of the acetate salt to the free base”.

For `CC(=O)O.Cc1ccc(Sc2ccccc2N2CCNCC2)c(C)c1` [vortioxetine acetate form III, 1-[2-(2,4-dimethylphenylsulfanyl)phenyl]piperazine acetate], which “Structural changes after stress (XRPD)” value ([3]; 40° C./75% RH for 4 weeks) is on record?
The value was “no structural changes”.

What about the “Structural changes after stress (XRPD)” value ([3]; RT/97% RH for 4 weeks) of the same compound?
Its value is “no structural changes”.

What about the “Structural changes after slurry (XRPD)” value ([1]; stirred 4 weeks, acetate) of the same compound?
The value was “does not undergo any transformation”.

What about the “Structural changes after slurry (XRPD)” value ([1]; stirred 4 weeks, listed as vortioxetine acetate form Ill) of the same compound?
Its value is “no structural changes”.

What about the “Aqueous solubility calculated as free base” value ([4]; 25° C. / room temperature, converted from acetate salt by Equation 1) of the same compound?
The value was 278 mg base/mL.

What about the solubility ([4]; thermodynamic from solid, 25° C., 100.34 mg dissolved in 300 μL, read-out: Solubility of the acetate salt in water) of the same compound?
Its solubility is 334 mg/mL.

And the “Δm (0-80% RH), water absorption” value [2, 7]?
Its value is “+0.4%^”.

And the “Hygroscopicity according to European Pharmacopoeia” value ([2]; gravimetric moisture sorption desorption curve, FIG. 6)?
The value was “only slightly hygroscopic”.

And the Water content ([2]; relative humidity of about 0%)?
Its Water content is “about 0.3%”.

What about the Water content ([2]; relative humidity of about 80%, acetate) of the same compound?
Its Water content is “less than 0.7%”.

What about the Water content ([2]; relative humidity of about 80%, listed as form III of vortioxetine acetate, acetate) of the same compound?
Its Water content is “about 0.7%”.

And the “Structural changes during moisture sorption” value [2, 7]?
Its value is “no changes from 0-97% RH”.

Which Aqueous solubility [5] does the source give for fumarate here?
The Aqueous solubility was 0.4 mg base/mL.

Which Aqueous solubility [5] does the source give for maleate here?
The Aqueous solubility was “≈1 mg base/mL”.

With phosphate as the compound, how does the Aqueous solubility [5] read?
The Aqueous solubility was “≈1 mg base/mL”.

For `CC(O)C(=O)O.Cc1ccc(Sc2ccccc2N2CCNCC2)c(C)c1` [DL-lactate form β], which Aqueous solubility [5] is on record?
Its Aqueous solubility is 8 mg base/mL.

Which Aqueous solubility [5] does the source give for `Cc1ccc(Sc2ccccc2N2CCNCC2)c(C)c1` [free base, 1-[2-(2,4-Dimethylphenylsulfanyl)phenyl]piperazine] here?
Its Aqueous solubility is 0.1 mg base/mL.

For `Cc1ccc(Sc2ccccc2N2CCNCC2)c(C)c1.Cl` [HCl], which Aqueous solubility [5] is on record?
The Aqueous solubility was 3 mg base/mL.

With `Cc1ccc(Sc2ccccc2N2CCNCC2)c(C)c1` [HCl MH] as the compound, how does the Aqueous solubility [5] read?
Its Aqueous solubility is 2 mg base/mL.

Which Aqueous solubility [5] does the source give for `CC(O)C(=O)O.Cc1ccc(Sc2ccccc2N2CCNCC2)c(C)c1` [L-lactate form MH2] here?
The Aqueous solubility was 26 mg base/mL.

For `Br.Cc1ccc(Sc2ccccc2N2CCNCC2)c(C)c1` [HBr form β], which Aqueous solubility [5] is on record?
Its Aqueous solubility is 1.2 mg base/mL.

With `Br.Cc1ccc(Sc2ccccc2N2CCNCC2)c(C)c1` [HBr form α] as the compound, how does the Aqueous solubility [5] read?
Its Aqueous solubility is 2 mg base/mL.
